Tests used:
[1] = test system: VERPE; experiment: Pre-emergence herbicidal action against VERPE; format: in vivo, Veronica persica; details: for pest or weed control at 80 g/ha: Veronica persica, 504 h
Procedure, shortened: (§1)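 Herbicidal effect was assessed 3 weeks after treatment by visual comparison with untreated controls, 100% denoting dead plants. Aqueous WP or EC preparations had been applied at 600 to 800 l/ha with 0.2% wetting agent to the soil covering freshly sown seeds.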

[2] = test system: VIOTR; experiment: Post-emergence herbicidal action against VIOTR; format: in vivo, Viola tricolor; details: Viola tricolor, 504 h, 20 g/ha
Procedure, shortened: (§2)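 Herbicidal effect was scored visually in percent after about 3 weeks in the greenhouse. Plants had been raised in sandy loam and treated post-emergence at the one-leaf stage with formulated compound at 600 to 800 l/ha water plus 0.2% wetting agent.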

[3] = test system: VIOTR; experiment: Pre-emergence herbicidal action against VIOTR; format: in vivo, Viola tricolor; details: for pest or weed control at 20 g/ha / pest or weed control at 80 g/ha: Viola tricolor, 504 h
Procedure, shortened: as §1

[4] = test system: ABUTH; experiment: Pre-emergence herbicidal action against ABUTH; format: in vivo, Abutilon theophrasti; details: for pest or weed control at 80 g/ha / pest or weed control at 20 g/ha: Abutilon theophrasti, 504 h; for pest or weed control at 20 g/ha: read-out: Pre-emergence action against ABUTH (herbicidal activity in percent)
Procedure, shortened: as §1

[5] = test system: ALOMY; experiment: Pre-emergence herbicidal action against ALOMY; format: in vivo, Alopecurus myosuroides; details: pre-emergence; for pest or weed control at 80 g/ha / pest or weed control at 20 g/ha: Alopecurus myosuroides, 504 h; for pest or weed control at 20 g/ha: scored visually after 3 weeks, 100% = plants have died, 0% = like control plants
Procedure, shortened: as §1

[6] = test system: LOLRI; experiment: Pre-emergence herbicidal action against LOLRI; format: in vivo, Lolium rigidum; details: 80 g/ha; for pest or weed control at 80 g/ha: Lolium rigidum, 504 h
Procedure, shortened: as §1

[7] = test system: AMARE; experiment: Pre-emergence herbicidal action against AMARE; format: in vivo, Amaranthus retroflexus; details: for pest or weed control at 20 g/ha / pest or weed control at 80 g/ha: Amaranthus retroflexus, 504 h
Procedure, shortened: as §1

[8] = test system: PHBPU; experiment: Pre-emergence herbicidal action against PHBPU; format: in vivo, Pharbitis purpurea
Procedure, shortened: as §1

[9] = test system: MATIN; experiment: Pre-emergence herbicidal action against MATIN; format: in vivo, Matricaria inodora; details: for pest or weed control at 20 g/ha / pest or weed control at 80 g/ha: Tripleurospermum inodorum, 504 h; for pest or weed control at 20 g/ha: dosage 20 g/ha
Procedure, shortened: as §1

[10] = test system: ALOMY; experiment: Post-emergence herbicidal action against ALOMY; format: in vivo, Alopecurus myosuroides; details: dosage 20 g/ha, visual assessment about 3 weeks after treatment vs untreated controls; for pest or weed control at 20 g/ha: Alopecurus myosuroides, 504 h
Procedure, shortened: as §2

[11] = test system: SETVI; experiment: Pre-emergence herbicidal action against SETVI; format: in vivo, Setaria viridis; details: Setaria viridis, 504 h; for pest or weed control at 20 g/ha: dosage 20 g/ha; for pest or weed control at 80 g/ha: dosage 80 g/ha
Procedure, shortened: as §1

[12] = test system: ABUTH; experiment: Post-emergence herbicidal action against ABUTH; format: in vivo, Abutilon theophrasti; details: Abutilon theophrasti, 504 h, visual assessment about 3 weeks after treatment vs untreated controls; for pest or weed control at 20 g/ha: dosage 20 g/ha
Procedure, shortened: as §2

[13] = test system: MATIN; experiment: Post-emergence herbicidal action against MATIN; format: in vivo, Matricaria inodora
Procedure, shortened: as §2

[14] = test system: SETVI; experiment: Post-emergence herbicidal action against SETVI; format: in vivo, Setaria viridis
Procedure, shortened: as §2

[15] = test system: VERPE; experiment: Post-emergence herbicidal action against VERPE; format: in vivo, Veronica persica; details: 20 g/ha; for pest or weed control at 20 g/ha: Veronica persica, 504 h
Procedure, shortened: as §2

[16] = test system: ECHCG; experiment: Pre-emergence herbicidal action against ECHCG; format: in vivo, Echinochloa crus-galli; details: 80 g/ha
Procedure, shortened: as §1

[17] = test system: PHBPU; experiment: Post-emergence herbicidal action against PHBPU; format: in vivo, Pharbitis purpurea
Procedure, shortened: as §2

[18] = test system: AVEFA; experiment: Pre-emergence herbicidal action against AVEFA; format: in vivo, Avena fatua; details: pre-emergence
Procedure, shortened: as §1

[19] = test system: AMARE; experiment: Post-emergence herbicidal action against AMARE; format: in vivo, Amaranthus retroflexus; details: 20 g/ha, visual assessment about 3 weeks after treatment, 100% = plants have died, 0% = like control plants
Procedure, shortened: as §2

[20] = test system: POLCO; experiment: Pre-emergence herbicidal action against POLCO; format: in vivo, Polygonum convolvulus
Procedure, shortened: as §1

[21] = test system: ECHCG; experiment: Post-emergence herbicidal action against ECHCG; format: in vivo, Echinochloa crus-galli
Procedure, shortened: as §2

[22] = test system: DIGSA; experiment: Pre-emergence herbicidal action against DIGSA; format: in vivo, Digitaria sanguinalis
Procedure, shortened: as §1

[23] = test system: DIGSA; experiment: Post-emergence herbicidal action against DIGSA; format: in vivo, Digitaria sanguinalis
Procedure, shortened: as §2

[24] = 80 g/ha, scored visually after 3 weeks vs untreated controls (100% = plants have died, 0% = like control plants)
[25] = dosage 20 g/ha, scored visually after 3 weeks vs untreated controls, 100% = plants have died, 0% = like control plants
[26] = 20 g/ha, scored visually after 3 weeks vs untreated controls, 100% = plants have died, 0% = like control plants
[27] = 80 g/ha, scored visually after 3 weeks vs untreated controls, 100% = plants have died, 0% = like control plants
[28] = Ipomoea purpurea, 504 h, dosage 80 g/ha
[29] = Tripleurospermum inodorum, 504 h, dosage 20 g/ha
[30] = Setaria viridis, 504 h, dosage 20 g/ha
[31] = Ipomoea purpurea, 504 h, dosage 20 g/ha
[32] = Fallopia convolvulus, 504 h, dosage 80 g/ha
[33] = Echinochloa crus-galli, 504 h, dosage 20 g/ha

CCNC(=O)c1c(C(F)(F)F)ccc(C(=O)Nc2nnnn2C)c1CC [Example 1-272]
pest or weed control at 80 g/ha ([1]; dosage 80 g/ha): 90% | pest or weed control at 20 g/ha [2]: 90% | pest or weed control at 20 g/ha ([3]; dosage 20 g/ha): 90% | pest or weed control at 80 g/ha ([3]; dosage 80 g/ha): 100% | pest or weed control at 80 g/ha [4, 24]: 100% | pest or weed control at 20 g/ha [4, 25]: 90% | pest or weed control at 80 g/ha [5, 24]: 100% | pest or weed control at 20 g/ha [5]: 90% | pest or weed control at 80 g/ha [6]: 80% | pest or weed control at 20 g/ha [7, 26]: 100% | pest or weed control at 80 g/ha [7, 27]: 100% | pest or weed control at 80 g/ha [8, 28]: 80% | pest or weed control at 20 g/ha [9]: 90% | pest or weed control at 80 g/ha ([9]; dosage 80 g/ha): 100% | pest or weed control at 20 g/ha [10]: 90% | pest or weed control at 20 g/ha [11]: 80% | pest or weed control at 80 g/ha [11]: 100% | pest or weed control at 5 g/ha ([12]; dosage 5 g/ha): 80% | pest or weed control at 20 g/ha [12]: 90% | pest or weed control at 20 g/ha [13, 29]: 90% | pest or weed control at 5 g/ha ([14]; Setaria viridis, 504 h, dosage 5 g/ha): 90% | pest or weed control at 20 g/ha [14, 30]: 90% | pest or weed control at 20 g/ha [15]: 80% | pest or weed control at 80 g/ha ([16]; Echinochloa crus-galli, 504 h): 100% | pest or weed control at 20 g/ha [17, 31]: 90% | pest or weed control at 80 g/ha ([18]; Avena fatua, 504 h, 80 g/ha): 90% | pest or weed control at 20 g/ha ([19]; Amaranthus retroflexus, 504 h): 100% | pest or weed control at 20 g/ha ([20]; Fallopia convolvulus, 504 h, dosage 20 g/ha): 80% | pest or weed control at 80 g/ha [20, 32]: 90% | pest or weed control at 5 g/ha ([21]; Echinochloa crus-galli, 504 h, dosage 5 g/ha): 80% | pest or weed control at 20 g/ha [21, 33]: 90%

Cc1c(C(=O)Nc2nnnn2C)ccc(C(F)F)c1C(=O)NC(C)C1CC1 (stereo not drawn) [Example 1-339]
Pre-emergence action against VERPE in % ([1]; dosage 20 g/ha): 100% | Pre-emergence action against VERPE in % ([1]; dosage 80 g/ha): 100% | Pre-emergence action against VIOTR in % ([3]; dosage 20 g/ha): 100% | Pre-emergence action against VIOTR in % ([3]; dosage 80 g/ha): 100% | Pre-emergence action against ABUTH (herbicidal activity) [4, 24]: 100% | Pre-emergence action against ABUTH (herbicidal activity in percent) [4, 25]: 90% | Pre-emergence action against ALOMY (herbicidal activity) [5, 24]: 90% | Pre-emergence action against DIGSA in % ([22]; dosage 20 g/ha): 100% | Pre-emergence action against DIGSA in % ([22]; dosage 80 g/ha): 100% | Pre-emergence action against LOLRI in % [6]: 100% | Pre-emergence action against AMARE in % [7, 26]: 100% | Pre-emergence action against AMARE in % [7, 24]: 100% | Pre-emergence action against PHBPU in % ([8]; dosage 20 g/ha): 100% | Pre-emergence action against PHBPU in % ([8]; dosage 80 g/ha): 100% | Pre-emergence action against MATIN in % ([9]; dosage 80 g/ha): 100% | Post-emergence action against ALOMY in % [10]: 80% | Post-emergence action against DIGSA in % ([23]; 5 g/ha): 90% | Post-emergence action against DIGSA ([23]; 20 g/ha): 90% | Post-emergence action against MATIN in % ([13]; dosage 20 g/ha): 80% | Post-emergence action against SETVI in % ([14]; dosage 5 g/ha): 80% | Post-emergence action against SETVI in % ([14]; dosage 20 g/ha): 90% | Post-emergence action against VERPE in % [15]: 90% | Pre-emergence action against ECHCG in % [16]: 100% | Post-emergence action against PHBPU in % ([17]; dosage 5 g/ha): 80% | Post-emergence action against PHBPU in % ([17]; dosage 20 g/ha): 90% | Pre-emergence action against AVEFA in % ([18]; 80 g/ha): 100% | Post-emergence action at 20 g/ha against AMARE in % [19]: 90% | Pre-emergence action against POLCO in % ([20]; dosage 80 g/ha): 80% | Post-emergence action against ECHCG in % ([21]; dosage 5 g/ha): 90% | Post-emergence action against ECHCG in % ([21]; dosage 20 g/ha): 90%

CCNC(=O)c1c(I)ccc(C(=O)Nc2nnnn2CC)c1Cl [Example 2-196]
pest or weed control at 80 g/ha ([1]; dosage 80 g/ha): 80% | pest or weed control at 20 g/ha ([3]; dosage 20 g/ha): 90% | pest or weed control at 80 g/ha ([3]; dosage 80 g/ha): 100% | pest or weed control at 80 g/ha [4, 24]: 100% | pest or weed control at 20 g/ha [4, 25]: 100% | pest or weed control at 80 g/ha [5, 24]: 100% | pest or weed control at 20 g/ha [5]: 90% | pest or weed control at 20 g/ha ([22]; Digitaria sanguinalis, 504 h, dosage 20 g/ha): 90% | pest or weed control at 80 g/ha ([22]; Digitaria sanguinalis, 504 h, dosage 80 g/ha): 100% | pest or weed control at 80 g/ha [6]: 100% | pest or weed control at 20 g/ha [7, 26]: 100% | pest or weed control at 80 g/ha [7, 27]: 100% | pest or weed control at 20 g/ha [8, 31]: 80% | pest or weed control at 80 g/ha [8, 28]: 90% | pest or weed control at 20 g/ha [9]: 100% | pest or weed control at 80 g/ha ([9]; dosage 80 g/ha): 100% | pest or weed control at 20 g/ha [10]: 90% | pest or weed control at 20 g/ha [11]: 90% | pest or weed control at 80 g/ha [11]: 100% | pest or weed control at 20 g/ha ([23]; Digitaria sanguinalis, 504 h, 20 g/ha): 90% | pest or weed control at 20 g/ha [12]: 100% | pest or weed control at 5 g/ha ([13]; Tripleurospermum inodorum, 504 h, dosage 5 g/ha): 80% | pest or weed control at 20 g/ha [13, 29]: 90% | pest or weed control at 20 g/ha [14, 30]: 100% | pest or weed control at 20 g/ha [15]: 80% | pest or weed control at 80 g/ha ([18]; Avena fatua, 504 h, 80 g/ha): 100% | pest or weed control at 20 g/ha ([18]; Avena fatua, 504 h, 20 g/ha, scored visually after 3 weeks, 100% = plants have died, 0% = like control plants): 80% | pest or weed control at 80 g/ha [20, 32]: 90% | pest or weed control at 20 g/ha [21, 33]: 80%
